Results published in patent publication US8329392B2, “Determination of testosterone by mass spectrometry” (Quest Diagnostics Investments Incorporated, priority 2003, dated 2012).

How the values were obtained:
[1] = Sample stability of testosterone in sample pools; type: physicochemical, human; conditions: testosterone in samples
Description: A blood serum sample is collected from a human patient. The serum is first de-proteinated using a 10% formic acid solution or a 1% trichloroacetic acid solution (in methanol). The deproteination also acts to release testosterone from SHBG, albumin, and other binding proteins. In other embodiments proteins can be removed from the blood with other acids such as a solution of 1% trichloroacetic acid in methanol.
To understand the stability of testosterone in samples, two levels of sample pool were subjected to the following conditions:
Freeze/Thaw: 1, 2, 3, 4, and 5 cycles.
Refrigerated (2-8° C.): 0, 1, 2, 4, 7, and 14 days.
Duplicate runs of samples were run on two separate days.

[2] = target: T1, Sex hormone-binding globulin (SHBG) (Homo sapiens, UniProt P04278); conditions: SHBG vs albumin; cited from earlier work
T1 sequence (P04278 30-402): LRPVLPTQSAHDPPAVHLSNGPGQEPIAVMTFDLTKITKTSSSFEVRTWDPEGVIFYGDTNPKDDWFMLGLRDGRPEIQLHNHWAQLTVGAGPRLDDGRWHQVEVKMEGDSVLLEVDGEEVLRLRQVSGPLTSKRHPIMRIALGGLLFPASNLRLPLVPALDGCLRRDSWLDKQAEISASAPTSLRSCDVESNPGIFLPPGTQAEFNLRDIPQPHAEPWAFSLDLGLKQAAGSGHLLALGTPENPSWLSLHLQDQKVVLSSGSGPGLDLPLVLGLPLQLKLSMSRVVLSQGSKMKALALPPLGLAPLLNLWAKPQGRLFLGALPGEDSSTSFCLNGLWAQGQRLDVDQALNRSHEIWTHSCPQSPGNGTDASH

plasma proteins = conditions: in circulation; cited from earlier work

Q: With C[C@]12CC[C@H]3[C@@H](CCC4=CC(=O)CC[C@@]43C)[C@@H]1CC[C@@H]2O [Testosterone, 4 androsten 17β-ol-3-one] as the compound, how does the Stability ([1]; Freeze Thaw Cycles, with no effect) read?
A: Up to 5 with no effect Cycles

Q: And the Stability ([1]; Refrigerated (0°-8° C.))?
A: 7 days

Q: What about the Stability ([1]; Room Temp (18-25° C.)) of the same compound?
A: 4 days

Q: And the “binding capacity of SHBG for testosterone relative to that of albumin” value [2]?
A: approximately 30,000 times

Q: And the “testosterone circulating unbound to plasma proteins” value (plasma proteins)?
A: Less than 2.5%
